Measured values taken from patent publication US8703815B2, “Small molecules that covalently modify transthyretin” (The Scripps Research Institute, priority 2009, dated 2014).
Values joined by “and” are separate entries in the source; they are usually repeats but may differ in a detail not shown here. Equal values may be shown once.

What was measured:
[1] = target: T1, WT-TTR (Homo sapiens, UniProt P02766); test: Quantum yield measurement with WT-TTR; assay type: physicochemical; conditions: compound 7.2 μM
T1 construct: composed of 127-residue β-sheet-rich subunits; made in house; host or cells: E. coli
Procedure: (§1) The covalent TTR modifier A1 or A2 or the non-covalent TTR ligand B2 (15 μL of a 1.44 mM solution in DMSO, final concentration: 7.2 μM) was added to 3 mL of a solution of WT-TTR homotetramer (0.2 mg/mL, 3.6 μM) in 10 mM phosphate, 100 mM KCl and 1 mM EDTA (pH 7.0 phosphate buffer). The samples were vortexed, and incubated for 18 hours at 25° C. Quantum yields were measured by following the instructions at the web site: jobinyvon.com/usadivisions/Fluorescence/applications/quantumyieldstrad.pdf. Quinine bisulfate in 0.5 M H2SO4 was used as a reference for comparison (Φf=0.546). [Crosby et al., J. Phys. Chem. 1971, 75, 991-1024.]

[2] = Quantum yield measurement in buffer; assay type: physicochemical
Procedure: as §1

[3] = target: T1, WT-TTR; test: Kinetics of the A2-TTR conjugation reaction (fluorescence); assay type: binding; conditions: A2 6 μM
Procedure: Because the one-chain, one-binding-site TTR tag being created is envisioned to be useful for doing pulse-chase studies in the secretory pathway of eukaryotic cells, the kinetics of WT-TTR modification by A2 in concentrated cell lysate was investigated. […] We added WT-TTR at a final concentration of 2 μM (tetramer) to the HeLa cell lysate (2 μg/μL total protein concentration) to which A2 (6 μM) was added. At 37° C., the conjugate formed with a t50 of 18 minutes, within experimental error of the t50 (19 minutes) of TTR (2 μM) conjugate formation with A2 (6 μM) in phosphate buffer (pH 7).
The covalent TTR modifier A2 (1 μL of 0.6 mM solution in DMSO, final concentration: 6 μM) was added to 90 μL of HeLa cell lysate (final protein concentration: 2 μg/μL) and 10 μL of WT-TTR (20 μM in pH 7.0 phosphate buffer, final concentration: 2 μM). The time-dependent fluorescence change of the conjugate derived from A2 was monitored utilizing a microplate spectrophotometer reader (Gemini SpectraMax®, Molecular Devices, Sunnyvale, Calif.) for 3 hours at 37° C. The fluorescence (λex=328 nm and λem=430 nm) was measured from the bottom of the plate without shaking.

[4] = tested on: Huh-7 human liver (hepatoma) cells; test: Labeling of endogenous TTR in Huh-7 cells; assay type: cell-based; conditions: A2 10 μM, 30 minutes
Excerpt: The confocal fluorescence observations are consistent with substantial evidence that the liver secretes the vast majority, if not all, of the TTR into the human bloodstream [Felding et al., Biochimica et Biophysica Acta 1982, 716, 446-9]. That TTR could be visualized in the secretory pathway addresses the sensitivity of A2-derived TTR fluorescent conjugate-based detection [Sekijima et al., Cell 2005, 121, 73-85].
Huh-7 cells or Gaucher's patient-derived fibroblasts (Coriell Cell Repositories, GM08760) were maintained in DMEM containing 10% FBS at 37° C. under 5% CO2. The cells were plated the day before compound treatment and imaging. Cells were washed twice with PBS and then treated with A2 (final concentration: 10 μM) for 30 minutes at 37° C. in a CO2 incubator. After two washes, cells were fixed at 25° C. for 15 minutes with 3.7% paraformaldehyde (w/v) in PBS and microscopic images were acquired as described above.

[5] = tested on: WT-TTR in transfected HeLa cells; test: Confocal fluorescence imaging of WT-TTR in transfected HeLa cells; assay type: cell-based, human; conditions: A2 10 μM, 1 hour
Procedure: Secreted WT-TTR was produced in HeLa cells by transient transfection and the cells were treated with A2 for 1 hour prior to imaging using confocal fluorescence microscopy. The expression of WT-TTR in the HeLa cells after transient transfection was confirmed using western blot analysis, as was the absence of TTR in the empty vector control. […] TTR conjugate fluorescence co-localized with calnexin indirect immunofluorescence, a marker for the endoplasmic reticulum (ER), confirming that WT-TTR within the secretory pathway is being observed. TTR conjugate fluorescence is also expected in the Golgi and in secretory vesicles, explaining why TTR conjugate fluorescence is observed in organelles in addition to the ER.
HeLa cells were plated on cover slips in DMEM containing 10% FBS at 37° C. under 5% CO2 the day before they were transfected with pcDNA3.1(+)-empty vector or pcDNA3.1(+)-WT-TTR using […] (Roche) according to the manufacturer's instructions. After 48 hours, the cells were washed with PBS twice before adding fresh DMEM (without FBS) with A2 (final concentration: 10 μM), and the cells were incubated at 37° C. for 1 hour. After two washes with PBS, the cells were fixed at 25° C. for 15 minutes with 3.7% (w/v) paraformaldehyde in PBS. […]

[6] = target: T2, V30M-TTR (Homo sapiens, UniProt P02766, V50M); test: Acid-mediated V30M-TTR fibril formation assay (turbidity at 400 nm); assay type: biochemical; conditions: pH 4.4, 72 hours, 37° C.
T2 construct: composed of 127-residue β-sheet-rich subunits; made in house
Procedure: Compounds (5 μL of 1.44 mM solution in DMSO) were added to 495 μL of TTR (7.2 μM, in 10 mM sodium phosphate, 100 mM KCl, 1 mM EDTA, pH 7.0). The mixtures were vortexed and incubated (maintained) for 18 hours at 25° C. […] The solutions were vortexed to evenly distribute any precipitate, and turbidity was measured at 400 nm using a Hewlett Packard model 8453 UV-VIS Spectrophotometer.

fluorescence quantum yield in complex or conjugate with TTR [1] | fluorescence quantum yield in buffer [2] | t50 of conjugate formation in phosphate buffer (pH 7) ([3]; TTR 2 μM) | t50 of conjugate formation in HeLa cell lysate ([3]; WT-TTR 2 μM, lysate 2 μg/μL, 37° C.) | % Fibril Formation 7.2 μM (V30M-TTR) ([6]; compound 7.2 μM) | % Fibril Formation […] (V30M-TTR) ([6]; compound […]) | SMILES | fluorescence in Huh-7 cells [4] | conjugate fluorescence in HeLa cells expressing WT-TTR [5]
0.27 | 0.00 | 19 minutes | 18 min and 20 min |  |  | Cc1cc(/C=C/c2cc(C(=O)Sc3ccc(F)cc3)cc(N(C)C)c2)cc(C)c1O [Compound A2, (E)-S-4-fluorophenyl 3-(dimethylamino)-5-(4-hydroxy-3,5-dimethylstyryl)-benzothioate] | strong fluorescence | strong conjugate fluorescence
 |  |  |  | 3% | 34% | Cc1cc(/C=C/c2cccc(C(=O)Sc3ccccc3)c2)cc(C)c1O [Compound 2, (E)-S-phenyl 3-(4-hydroxy-3,5-dimethylstyryl)benzothioate] |  | 
